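48-hour exposure; five concentrations; linearly interpolated endpoints. GI50: concentration for 50% inhibition of growth.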 Calls of active or inactive are those of the source. No stated cut-off is given here; in the data, active = GI50 up to about 1.1 µM and inactive = higher.
Columns and labels:
Experiment in all cases: NCI-60 cell line screen, 48 h
[1] = test system: NCI-H522
[2] = test system: SK-MEL-2
[3] = test system: DMS-273
[4] = test system: DMS-114
[5] = test system: OVCAR-4
[6] = test system: OVCAR-8
[7] = test system: HT-29
[8] = test system: SNB-78
[9] = test system: A498
[10] = test system: OVCAR-5
[11] = test system: SK-MEL-5
[12] = test system: SNB-19
[13] = test system: COLO 205
[14] = test system: UACC-257
[15] = test system: Malme-3M
[16] = test system: CCRF-CEM
[17] = test system: U-251
[18] = test system: 786-0

Row | Structure (SMILES) | GI50 [1] | GI50 [2] | GI50 [3] | GI50 [4] | GI50 [5] | GI50 [6] | GI50 [7] | GI50 [8] | GI50 [9] | GI50 [10] | GI50 [11] | GI50 [12] | GI50 [13] | GI50 [14] | GI50 [15] | GI50 [16] | GI50 [17] | GI50 [18]
1 | CCCCC(C(=O)CCC(=O)Nc1ccc(Cl)cc1)C(=O)C(C)C (stereo not given) | > 100 µM (inactive) | > 100 µM (inactive) | > 100 µM (inactive) | > 100 µM (inactive) | > 100 µM (inactive) | > 100 µM (inactive) | > 100 µM (inactive) | > 100 µM (inactive) | > 100 µM (inactive) | > 100 µM (inactive) | > 100 µM (inactive) | > 100 µM (inactive) | > 100 µM (inactive) | > 100 µM (inactive) | > 100 µM (inactive) | > 100 µM (inactive) | > 100 µM (inactive) | > 100 µM (inactive)
2 | COC(=O)c1c(OC)cccc1C(=O)O | > 100 µM (inactive) | > 100 µM (inactive) | > 100 µM (inactive) | > 100 µM (inactive) | > 100 µM (inactive) | > 100 µM (inactive) | > 100 µM (inactive) | > 100 µM (inactive) | > 100 µM (inactive) | > 100 µM (inactive) | > 100 µM (inactive) | > 100 µM (inactive) | > 100 µM (inactive) | > 100 µM (inactive) | > 100 µM (inactive) | > 100 µM (inactive) | > 100 µM (inactive) | > 100 µM (inactive)
3 | C[C@H]1NC(=O)C2CCCCN2C(=O)CN(C)C(=O)CNC(=O)C2CCCCN2C(=O)[C@@H](NC(=O)c2nc3ccccc3cc2O)[C@@H](C)NC(=O)C2CCCCN2C(=O)CN(C)C(=O)CNC(=O)[C@@H]2CCCCN2C(=O)C1NC(=O)c1nc2ccccc2cc1O (stereo not given in full) | 0.106 µM (active) | 0.0817 µM (active) | 0.0255 µM (active) | 0.23 µM (active) | 0.389 µM (active) | 0.193 µM (active) | 0.347 µM (active) | 0.0865 µM (active) | 0.166 µM (active) | 1.91 µM (inactive) | 0.155 µM (active) | 0.241 µM (active) | 0.252 µM (active) | 0.185 µM (active) | 0.182 µM (active) | 1.02 µM (active) | 0.0153 µM (active) | 0.203 µM (active)
4 | O=C1NC(Cc2ccccc2)C(=O)N2CCCC12 (stereo not given) | > 100 µM (inactive) | > 100 µM (inactive) | > 100 µM (inactive) | > 100 µM (inactive) | > 100 µM (inactive) | > 100 µM (inactive) | > 100 µM (inactive) | > 100 µM (inactive) | > 100 µM (inactive) | > 100 µM (inactive) | > 100 µM (inactive) | > 100 µM (inactive) | > 100 µM (inactive) | > 100 µM (inactive) | > 100 µM (inactive) | > 100 µM (inactive) | > 100 µM (inactive) | > 100 µM (inactive)
5 | O=C(c1cc(O)ccc1O)c1ccccc1C(Cl)(Cl)Cl | 57.1 µM (inactive) | > 100 µM (inactive) | > 100 µM (inactive) | 32 µM (inactive) | 68.5 µM (inactive) | 80.9 µM (inactive) | > 100 µM (inactive) | > 100 µM (inactive) | 82.8 µM (inactive) | > 100 µM (inactive) | 35.6 µM (inactive) | > 100 µM (inactive) | > 100 µM (inactive) | 39 µM (inactive) | > 100 µM (inactive) | 61.5 µM (inactive) | > 100 µM (inactive) | > 100 µM (inactive)
